The values below come from patent publication US7423149B2, “Substituted n-aryl amidines as selective D1 dopamine receptor antagonists for the treatment of obesity and CNS disorders” (Schering Corporation, priority 2003, dated 2008).

The target in this experiment is T1, human Dopamine D1 receptor (Homo sapiens, UniProt P21728).
T1 construct: expressed in transfected cells; host or cells: Ltk- cells (mouse fibroblasts), membrane preparation
In words: radioligand binding competition assay, displacement of [3H]SCH 23390 from D1 receptor (Ltk-cells membranes).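 Also: under 5 nM class also requires D2 to D1 selectivity above 500.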 To be noted: class combines Ki (D1) and, for A and B, D2:D1 selectivity (Ki D2 / Ki D1); read-out: D1 binding and D2:D1 Selectivity. The text has this:
Biological Activity: Compounds from this disclosure have been biologically characterized by their ability to displace a known D1-like selective ligand, [3H]SCH 23390 from the human Dopamine D1 receptor, and a known D2-like selective ligand, [3H] Methylspiperone, from the human Dopamine D2 and D4 receptors.
Affinity values (Ki) of compounds at human dopamine receptors were ascertained using radioligand binding competition assays. Cells expressing D1 (Ltk-cells), D2 (long variant, Ltk-cells), D4 (CHO cells) and D5 (GH4C1 cells) receptors were lysed in hypotonic buffer for membrane preparation. Membranes were incubated with various concentrations of test compound and 1 nM [3H] SCH 23390 (D1 and D5) and 0.2 nM [3H] Methylspiperone for (D2 and D4) assays. Non-specific binding was defined as binding in the presence of 10 micromolar of SCH 23390 for D1 and D5 assays and 10 micromolar butaclamol for D2 and D4 assays. Following incubation to equilibrium (1 hour at room temperature), bound radioligand was separated from free by rapid filtration. Bound radioactivity on the dried filters was quantified by liquid scintillation counting.
Selectivity is determined by dividing Ki for D2, D4 or D5 receptors by Ki for D1 receptor.

Bounds are passed on as bounds.

T1 sequence (P21728 whole entry): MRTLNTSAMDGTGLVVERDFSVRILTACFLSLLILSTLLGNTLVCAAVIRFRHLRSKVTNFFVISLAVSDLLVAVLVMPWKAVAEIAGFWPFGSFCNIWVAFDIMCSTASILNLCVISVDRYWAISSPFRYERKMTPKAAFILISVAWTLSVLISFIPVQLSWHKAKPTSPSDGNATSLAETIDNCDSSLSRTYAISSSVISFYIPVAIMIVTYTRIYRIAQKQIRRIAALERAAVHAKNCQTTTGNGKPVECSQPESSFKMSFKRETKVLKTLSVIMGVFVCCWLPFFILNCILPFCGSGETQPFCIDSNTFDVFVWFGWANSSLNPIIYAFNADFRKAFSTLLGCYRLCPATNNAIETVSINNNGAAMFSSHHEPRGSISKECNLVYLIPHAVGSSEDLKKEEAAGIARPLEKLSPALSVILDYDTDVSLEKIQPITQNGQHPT

Turning to `N=C(/C=C/c1ccc(N2CCCC2)cc1)Nc1ccc(Cl)cc1` [Example 90], the Ki lay in the range of 50 to 10000 nM.
On to `N#Cc1ccc(-c2ccc(/C=C/C(=N)Nc3ccc(Cl)cc3)cc2)cc1` [Example 43], for which the Ki is below 10 nM.
Then `N=C(/C=C/c1ccc(-c2cccc([N+](=O)[O-])c2)cc1)Nc1ccc(Cl)cc1` [Example 41], with 10 to 50 nM.
Then `N=C(Cc1ccc2ccccc2c1)Nc1ccc(Cl)cc1` [Example 132], with 50 to 10000 nM; and `CC(C)(C)OC(=O)N1CCN(Cc2ccc(-c3ccc(/C=C/C(=N)Nc4ccc(Cl)cc4)cc3)cc2)CC1` [Example 75], with 50 to 10000 nM; and `CCC1CCC(N2CCN(c3ccc(/C=C/C(=N)Nc4ccc(Cl)cc4)c(Cl)c3)CC2)CC1` (stereo not drawn) [Example 56], with 10 to 50 nM.
For `N=C(/C=C/c1ccc(N2CCOCC2)cc1)Nc1ccc(Cl)cc1` [Example 86], the Ki was in the range of 50 to 10000 nM.
Then `N=C(/C=C/c1ccccc1Br)Nc1ccc(Cl)cc1` [Example 76], with 50 to 10000 nM.
Then `COc1ccc(/C=C/C(=N)Nc2ccc(F)c(Cl)c2)cc1` [Example 18], with 50 to 10000 nM; and `N=C(/C=C/c1ccc(-c2ccc(CN3CCNCC3)cc2)cc1)Nc1ccc(Cl)cc1` [Example 68], with 10 to 50 nM; and `COc1ccc(NC(=N)/C=C/c2ccc(N3CCNCC3)cc2Cl)cc1Cl` [Example 96], with 50 to 10000 nM.
Consider `CC1CCCCN1c1ccc(/C=C/C(=N)Nc2ccc(Cl)cc2)cc1` (stereo not drawn) [Example 32], for which the Ki is below 10 nM.
Then `CN1CCN(Cc2ccc(-c3ccc(/C=C/C(=N)Nc4ccc(Cl)cc4)cc3)cc2)CC1` [Example 52], with 10 to 50 nM; and `N=C(/C=C/c1c(Cl)cccc1Cl)Nc1ccc(Cl)cc1` [Example 103], with 50 to 10000 nM.
Regarding `N=C(/C=C/c1ccc(Cc2cccnc2)cc1)Nc1ccc2c(c1)CCC2` [Example 15], the Ki fell in the range of 10 to 50 nM.
In the case of `N=C(/C=C/c1ccc(CN2CCCCC2)cc1)Nc1ccc(Cl)cc1` [Example 6], the Ki lay in the range of 50 to 10000 nM.
Then `COc1ccc(/C=C\C(=N)Nc2ccc(Cl)cc2)cc1` [Example 81], with 50 to 10000 nM; and `COc1ccc(/C=C/C(=N)Nc2ccc(Cl)cc2)c(F)c1` [Example 54], with 10 to 50 nM; and `COc1ccc(/C=C/C(=N)Nc2ccc(Cl)cc2)c(Cl)c1OC` [Example 29], with 10 to 50 nM.
Then `N=C(/C=C/c1ccc(O)c(Cl)c1)Nc1ccc(Cl)cc1` [Example 92], with 50 to 10000 nM; and `COc1ccc2cc(C(=N)Nc3ccc(Cl)cc3F)ccc2c1` [Example 119], with 50 to 10000 nM.
With `COc1ccc(/C=C/C(=N)Nc2ccc(Br)cc2)cc1` [Example 23], the Ki lay within 10 to 50 nM.
Regarding `N=C(/C=C/c1ccc(CN2CCCC2)cc1)Nc1ccc(Cl)cc1` [Example 108], the Ki lay within 50 to 10000 nM.
Then `CN(C)c1ccc(/C=C/C(=N)Nc2ccc(Cl)cc2)c2ccccc12` [Example 101], with 50 to 10000 nM; and `CCC(C)CN1CCN(c2ccc(/C=C/C(=N)Nc3ccc(Cl)cc3)c(Cl)c2)CC1` (stereo not drawn) [Example 83], with 50 to 10000 nM.
Then `N=C(/C=C/c1ccc(Cl)s1)Nc1ccc(Cl)cc1` [Example 67], with 10 to 50 nM; and `C[C@H]1CNCCN1c1ccc(/C=C/C(=N)Nc2ccc(Cl)cc2)c(Cl)c1` [Example 34], with below 5 nM.
On to `COc1ccc(/C=C/C(=N)Nc2ccc(C(C)(C)C)cc2)cc1` [Example 133], for which the Ki fell in the range of 50 to 10000 nM.
In the case of `C[C@@H]1CNCCN1c1ccc(/C=C/C(=N)Nc2ccc(Cl)cc2)c(Cl)c1` [Example 39], the Ki is below 5 nM.
On to `N=C(/C=C/c1ccc(-c2ccc(CO)cc2)cc1)Nc1ccc(Cl)cc1` [Example 111], for which the Ki was 50 to 10000 nM.
Then `N=C(/C=C/c1ccc(N2CCN(Cc3cccs3)CC2)cc1Cl)Nc1ccc(Cl)cc1` [Example 47], with 10 to 50 nM; and `N=C(/C=C/c1ccc(-c2ccccc2)cc1)Nc1ccc(Cl)cc1` [Example 16], with 10 to 50 nM.
Then `N=C(/C=C/c1ccc2c(c1)OCCO2)Nc1ccc(Cl)cc1` [Example 105], with 50 to 10000 nM; and `N=C(/C=C/c1ccc(N2CCN(c3cccc(Cl)c3)CC2)cc1)Nc1ccc(Cl)cc1` [Example 93], with 50 to 10000 nM; and `Cc1ccc(/C=C/C(=N)Nc2ccc(Cl)cc2)cc1` [Example 28], with 50 to 10000 nM.
Then `N=C(/C=C/c1ccc(Cc2cccnc2)cc1)Nc1ccc(Br)cc1` [Example 24], with 10 to 50 nM.
For the compound `N=C(/C=C/c1ccc(N2CCN(Cc3cccc(OC(F)(F)F)c3)CC2)cc1Cl)Nc1ccc(Cl)cc1` [Example 53], the Ki lay in the range of 10 to 50 nM.
As for `CN(C)c1ccc(/C=C/C(=N)Nc2ccc(Cl)cc2)cc1` [Example 37], the Ki was 10 to 50 nM.
With `N=C(/C=C/c1ccc(Cc2cccnc2)cc1)Nc1ccc(OC(F)(F)F)cc1` [Example 124], the Ki is 50 to 10000 nM.
As to `N=C(/C=C/c1ccc(-c2cccc(C(=O)O)c2)cc1)Nc1ccc(Cl)cc1` [Example 120], the Ki was 50 to 10000 nM.
Then `N=C(Nc1ccc(Cl)cc1)c1ccc2ccccc2n1` [Example 127], with 50 to 10000 nM; and `N=C(/C=C/c1cc(Cl)cc(Cl)c1)Nc1ccc(Cl)cc1` [Example 109], with 50 to 10000 nM.
Then `N=C(/C=C/c1ccc(N2CCN(c3ccccc3)CC2)cc1)Nc1ccc(Cl)cc1` [Example 104], with 50 to 10000 nM; and `N=C(/C=C/c1ccc(N)cc1)Nc1ccc(Cl)cc1` [Example 98], with 50 to 10000 nM; and `N=C(/C=C/c1ccc(-c2cccc(F)c2)cc1)Nc1ccc(Cl)cc1` [Example 58], with 10 to 50 nM.
As for `COc1cccc2ccc(C(=N)Nc3ccc(Cl)cc3)nc12` [Example 94, N-(4-chloro-phenyl)-8-methoxy-quinoline-2-carboxamidine], the Ki was 50 to 10000 nM.
Regarding `N=C(/C=C/c1ccccc1I)Nc1ccc(Cl)cc1` [Example 5], the Ki lay within 50 to 10000 nM.
Then `N=C(/C=C/c1ccc(Cc2c[nH]cn2)cc1)Nc1ccc(Cl)cc1` [Example 57], with 10 to 50 nM; and `N=C(/C=C/c1ccc(N2CCNCC2)cc1Cl)Nc1ccc(O)c(Cl)c1` [Example 123], with 50 to 10000 nM.
On to `N=C(/C=C/c1ccc(N2CCCCC2)cc1)Nc1ccc(Cl)cc1` [Example 84], for which the Ki lay within 50 to 10000 nM.
Then `CCOc1ccc(CN2CCN(c3ccc(/C=C/C(=N)Nc4ccc(Cl)cc4)c(Cl)c3)CC2)cc1` [Example 62], with 10 to 50 nM; and `N=C(/C=C/c1ccc(Cl)cc1)Nc1ccc(Cl)cc1` [Example 80], with 50 to 10000 nM; and `COc1ccc2cc(C(=N)Nc3ccc(Cl)cc3)ccc2c1` [Example 26], with 50 to 10000 nM.
Then `COc1ccc(/C=C/C(=N)Nc2ccc(Cl)cc2)cc1` [Example 70], with 10 to 50 nM; and `CCN(CC)c1ccc(/C=C/C(=N)Nc2ccc(Cl)cc2)c(Cl)c1` [Example 40], with below 10 nM; and `N=C(/C=C/c1ccccc1)Nc1ccc(Cl)cc1` [Example 114], with 50 to 10000 nM.
Then `N=C(/C=C/c1ccc(Cc2ccncc2)cc1)Nc1ccc(Cl)cc1` [Example 35], with 10 to 50 nM.
`N=C(/C=C/c1ccc(-c2ccc(CN3CCN(Cc4ccccc4)CC3)cc2)cc1)Nc1ccc(Cl)cc1` [Example 87]: the Ki fell in the range of 50 to 10000 nM.
Then `CC(C)c1ccc(/C=C/C(=N)Nc2ccc(Cl)cc2)cc1` [Example 10], with 10 to 50 nM; and `Cc1ccc(NC(=N)/C=C/c2ccc(Cc3cccnc3)cc2)cc1` [Example 31], with 10 to 50 nM.
